Measured values: the supplement of paper PMC12698765
± gives the standard deviation of the averaged measurements.

What was measured:
[1] = tested on: 409B2 hiPSC (iCRISPR Cas9, FRMD7 editing); assay: cell survival relative to solvent control (fold (ratio to mock)); higher = more surviving cells
Description: (§1)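 Subset screen of 55 drugs tested at 5 concentrations around the effective screening dose, in 409B2 iCRISPR Cas9 hiPSCs editing FRMD7 with a ssDNA donor. Drugs were applied for 24 h. Viability was read by resazurin and editing outcomes by amplicon sequencing (HDR, NHEJ <2 bp microhomology, MMEJ ≥2 bp microhomology). Values are relative to solvent mock controls; two biological replicates.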

[2] = tested on: 409B2 hiPSC (iCRISPR Cas9, FRMD7 editing); assay: NHEJ-attributed indel frequency relative to solvent control (fold (ratio to mock)); higher = more NHEJ outcomes
Description: as §1

[3] = tested on: 409B2 hiPSC (iCRISPR Cas9, FRMD7 editing); assay: MMEJ-attributed deletion frequency relative to solvent control (fold (ratio to mock)); higher = more MMEJ outcomes
Description: as §1

[4] = tested on: 409B2 hiPSC (iCRISPR Cas9, FRMD7 editing); assay: HDR (precise edit) frequency relative to solvent control (fold (ratio to mock)); higher = more homology-directed repair outcomes
Description: as §1

CC(=O)c1c(C)c2cnc(Nc3ccc(N4CCNCC4)cn3)nc2n(C2CCCC2)c1=O (in DMSO) gave a cell survival ([1]; 2000 nM) of 0.475, a cell survival ([1]; 5000 nM) of 0.185 and a cell survival ([1]; 10000 nM) of 0.0327. For the same compound, the cell survival ([1]; 20000 nM) was -0.0205, the cell survival ([1]; 50000 nM) was 0.00851 and the NHEJ-attributed indel frequency ([2]; 2000 nM) was 0.989 ± 0.048. The NHEJ-attributed indel frequency ([2]; 5000 nM) was 0.993 ± 0.073, the NHEJ-attributed indel frequency ([2]; 10000 nM) was 0.46 ± 0.24 and the NHEJ-attributed indel frequency ([2]; 20000 nM) was 0.127 ± 0.018. It also gave an NHEJ-attributed indel frequency ([2]; 50000 nM) of 0.12 ± 0.036, an MMEJ-attributed deletion frequency ([3]; 2000 nM) of 0.907 ± 0.03 and an MMEJ-attributed deletion frequency ([3]; 5000 nM) of 1.19 ± 0.17. The MMEJ-attributed deletion frequency ([3]; 10000 nM) was 0.73 ± 0.046, the MMEJ-attributed deletion frequency ([3]; 20000 nM) was 0.458 ± 0.082 and the MMEJ-attributed deletion frequency ([3]; 50000 nM) was 0.244 ± 0.076. The HDR ([4]; 2000 nM) was 1.01 ± 0.011, the HDR ([4]; 5000 nM) was 0.587 ± 0.11 and the HDR ([4]; 10000 nM) was 0.152 ± 0.029. It also gave an HDR ([4]; 20000 nM) of 0.0501 ± 0.0028 and an HDR ([4]; 50000 nM) of 0.0996 ± 0.032.
In the case of Cc1ccc(C(=O)N(CCCN)[C@@H](c2nc3cc(Cl)ccc3c(=O)n2Cc2ccccc2)C(C)C)cc1 (in DMSO), the cell survival ([1]; 0.2 nM) is reported as 1.07, the cell survival ([1]; 0.5 nM) is reported as 1.34 and the cell survival ([1]; 1 nM) is reported as 1.15. It also gave a cell survival ([1]; 2 nM) of 1.2, a cell survival ([1]; 5 nM) of 0.682 and an NHEJ-attributed indel frequency ([2]; 0.2 nM) of 0.957 ± 0.046. The NHEJ-attributed indel frequency ([2]; 0.5 nM) was 0.989 ± 0.019, the NHEJ-attributed indel frequency ([2]; 1 nM) was 0.9925 ± 0.0038 and the NHEJ-attributed indel frequency ([2]; 2 nM) was 1.012 ± 0.0086. The NHEJ-attributed indel frequency ([2]; 5 nM) was 1.07 ± 0.041, the MMEJ-attributed deletion frequency ([3]; 0.2 nM) was 1.01 ± 0.086 and the MMEJ-attributed deletion frequency ([3]; 0.5 nM) was 0.901 ± 0.032. The MMEJ-attributed deletion frequency ([3]; 1 nM) was 1.01 ± 0.076, the MMEJ-attributed deletion frequency ([3]; 2 nM) was 0.864 ± 0.08 and the MMEJ-attributed deletion frequency ([3]; 5 nM) was 0.961 ± 0.13. It also gave an HDR ([4]; 0.2 nM) of 1.1 ± 0.075, an HDR ([4]; 0.5 nM) of 1.0454 ± 2.1e-05 and an HDR ([4]; 1 nM) of 1.08 ± 0.032. It also gave an HDR ([4]; 2 nM) of 1.03 ± 0.032 and an HDR ([4]; 5 nM) of 1.18 ± 0.095.
Work on O=C(c1cc(Cc2n[nH]c(=O)c3ccccc23)ccc1F)N1CCN(C(=O)C2CC2)CC1 (in DMSO) yielded a cell survival ([1]; 200 nM) of 0.395, a cell survival ([1]; 500 nM) of 0.388 and a cell survival ([1]; 1000 nM) of 0.217. It also gave a cell survival ([1]; 2000 nM) of 0.106, a cell survival ([1]; 5000 nM) of 0.0246 and an NHEJ-attributed indel frequency ([2]; 200 nM) of 0.814 ± 0.042. The NHEJ-attributed indel frequency ([2]; 500 nM) was 0.78 ± 0.042, the NHEJ-attributed indel frequency ([2]; 1000 nM) was 0.698 ± 0.076 and the NHEJ-attributed indel frequency ([2]; 2000 nM) was 0.6123 ± 0.0021. It also gave an NHEJ-attributed indel frequency ([2]; 5000 nM) of 0.513 ± 0.04, an MMEJ-attributed deletion frequency ([3]; 200 nM) of 0.9 ± 0.073 and an MMEJ-attributed deletion frequency ([3]; 500 nM) of 0.64 ± 0.079. The MMEJ-attributed deletion frequency ([3]; 1000 nM) was 0.705 ± 0.18, the MMEJ-attributed deletion frequency ([3]; 2000 nM) was 0.614 ± 0.013 and the MMEJ-attributed deletion frequency ([3]; 5000 nM) was 0.746 ± 0.11. For the same compound, the HDR ([4]; 200 nM) was 1.28 ± 0.18, the HDR ([4]; 500 nM) was 1.18 ± 0.16 and the HDR ([4]; 1000 nM) was 1.341 ± 0.0076. For the same compound, the HDR ([4]; 2000 nM) was 1.03 ± 0.017 and the HDR ([4]; 5000 nM) was 0.432 ± 0.03.
Compound CCN1CCN(Cc2ccc(Nc3ncc(F)c(-c4cc(F)c5nc(C)n(C(C)C)c5c4)n3)nc2)CC1 (in EtOH) has a cell survival ([1]; 2000 nM) of 0.514, a cell survival ([1]; 5000 nM) of -0.00651 and a cell survival ([1]; 10000 nM) of -0.00445. It also gave a cell survival ([1]; 20000 nM) of -0.00662, a cell survival ([1]; 50000 nM) of -0.00233 and an NHEJ-attributed indel frequency ([2]; 2000 nM) of 0.504 ± 0.61. The NHEJ-attributed indel frequency ([2]; 5000 nM) was 0.11 ± 0.075, the NHEJ-attributed indel frequency ([2]; 10000 nM) was 0.157 ± 0.018 and the NHEJ-attributed indel frequency ([2]; 20000 nM) was 0.0938 ± 0.058. It also gave an NHEJ-attributed indel frequency ([2]; 50000 nM) of 0.0987 ± 0.029, an MMEJ-attributed deletion frequency ([3]; 2000 nM) of 0.565 ± 0.58 and an MMEJ-attributed deletion frequency ([3]; 5000 nM) of 0.159 ± 0.15. For the same compound, the MMEJ-attributed deletion frequency ([3]; 10000 nM) was 0.229 ± 0.044, the MMEJ-attributed deletion frequency ([3]; 20000 nM) was 0.109 ± 0.062 and the MMEJ-attributed deletion frequency ([3]; 50000 nM) was 0.0743 ± 0.0014. For the same compound, the HDR ([4]; 2000 nM) was 0.589 ± 0.76, the HDR ([4]; 5000 nM) was 0.0594 ± 0.017 and the HDR ([4]; 10000 nM) was 0.0558 ± 0.0014. It also gave an HDR ([4]; 20000 nM) of 0.0719 ± 0.015 and an HDR ([4]; 50000 nM) of 0.0788 ± 0.0049.
CSCCC(N)C(=O)O (racemic) [DL-Methionine] (in H2O) gave a cell survival ([1]; 20 nM) of 0.974, a cell survival ([1]; 50 nM) of 0.972 and a cell survival ([1]; 100 nM) of 0.891. The cell survival ([1]; 200 nM) was 0.957, the cell survival ([1]; 500 nM) was 0.861 and the NHEJ-attributed indel frequency ([2]; 20 nM) was 1.01 ± 0.025. For the same compound, the NHEJ-attributed indel frequency ([2]; 50 nM) was 1.038 ± 0.0021, the NHEJ-attributed indel frequency ([2]; 100 nM) was 1.04 ± 0.0044 and the NHEJ-attributed indel frequency ([2]; 200 nM) was 1.03 ± 0.011. For the same compound, the NHEJ-attributed indel frequency ([2]; 500 nM) was 1.02 ± 0.016, the MMEJ-attributed deletion frequency ([3]; 20 nM) was 0.912 ± 0.069 and the MMEJ-attributed deletion frequency ([3]; 50 nM) was 0.924 ± 0.017. For the same compound, the MMEJ-attributed deletion frequency ([3]; 100 nM) was 0.802 ± 0.018, the MMEJ-attributed deletion frequency ([3]; 200 nM) was 0.877 ± 0.13 and the MMEJ-attributed deletion frequency ([3]; 500 nM) was 0.912 ± 0.042. It also gave an HDR ([4]; 20 nM) of 1.001 ± 0.0057, an HDR ([4]; 50 nM) of 0.932 ± 0.021 and an HDR ([4]; 100 nM) of 0.943 ± 0.051. It also gave an HDR ([4]; 200 nM) of 0.937 ± 0.044 and an HDR ([4]; 500 nM) of 0.917 ± 0.011.
Compound Nc1ncnc2c1ncn2C1CC(O)C(CO)O1 (stereo not given) [2'-Deoxyadenosine monohydrate] (in DMSO) has a cell survival ([1]; 20 nM) of 0.996, a cell survival ([1]; 50 nM) of 1.12 and a cell survival ([1]; 100 nM) of 1. For the same compound, the cell survival ([1]; 200 nM) was 1.1, the cell survival ([1]; 500 nM) was 1.12 and the NHEJ-attributed indel frequency ([2]; 20 nM) was 1.01 ± 0.013. For the same compound, the NHEJ-attributed indel frequency ([2]; 50 nM) was 1.02 ± 0.015, the NHEJ-attributed indel frequency ([2]; 100 nM) was 1 ± 0.029 and the NHEJ-attributed indel frequency ([2]; 200 nM) was 1.006 ± 0.008. For the same compound, the NHEJ-attributed indel frequency ([2]; 500 nM) was 1.01 ± 0.027, the MMEJ-attributed deletion frequency ([3]; 20 nM) was 0.957 ± 0.043 and the MMEJ-attributed deletion frequency ([3]; 50 nM) was 0.99 ± 0.071. It also gave an MMEJ-attributed deletion frequency ([3]; 100 nM) of 0.999 ± 0.11, an MMEJ-attributed deletion frequency ([3]; 200 nM) of 1.02 ± 0.036 and an MMEJ-attributed deletion frequency ([3]; 500 nM) of 1.02 ± 0.2. For the same compound, the HDR ([4]; 20 nM) was 1.03 ± 0.021, the HDR ([4]; 50 nM) was 1.02 ± 0.02 and the HDR ([4]; 100 nM) was 1.03 ± 0.11. It also gave an HDR ([4]; 200 nM) of 1.01 ± 0.05 and an HDR ([4]; 500 nM) of 0.958 ± 0.062.
